Measured values published in patent publication US9375005B2, “5-halogenopyrazole indanyl carboxamides” (BAYER CROPSCIENCE AG, priority 2012, dated 2016).

What was measured:
Pyrenophora teres = assay: In vivo preventive test on Pyrenophora teres (net blotch on barley); details: dose 500 ppm; barley plants sprayed 24 h before contamination; grading 14 days after contamination
Procedure: Barley plants (“Plaisant” variety), sown in starter cups on a 50/50 peat soil-pozzolana substrate and grown at 22° C., are treated at the 1-leaf stage (10 cm height) by spraying with the active ingredient prepared as described above. Plants, used as controls, are treated with the mixture of acetone/tween/DMSO/water not containing the active material. After 24 hours, the plants are contaminated by spraying the leaves with an aqueous suspension of Pyrenophora teres spores (12 000 spores per ml). The spores are collected from a 12-day-old culture. […] Grading (% of efficacy) is carried out 14 days after the contamination, in comparison with the control plants.

Septoria tritici = assay: In vivo preventive test on Septoria tritici (leaf spot on wheat); details: dose 500 ppm; wheat plants sprayed 24 h before contamination; grading 24 days after contamination
Procedure: Wheat plants (“Scipion” variety), sown in starter cups on a 50/50 peat soil-pozzolana substrate and grown at 22° C., are treated at the 1-leaf stage (10 cm height) by spraying with the active ingredient prepared as described above. Plants, used as controls, are treated with the mixture of acetone/tween/DMSO/water not containing the active material. After 24 hours, the plants are contaminated by spraying the leaves with an aqueous suspension of cryopreserved Septoria tritici spores (500 000 spores per ml). […] Grading (% of efficacy) is carried out 24 days after the contamination, in comparison with the control plants.

Uromyces appendiculatus = assay: In vivo preventive test on Uromyces appendiculatus (bean rust); details: dose 500 ppm; bean plants sprayed 24 h before contamination; grading 11 days after contamination
Procedure: Bean plants (“Saxa” variety), sown in starter cups on a 50/50 peat soil-pozzolana substrate and grown at 24° C., are treated at the 2-leaf stage (9 cm height) by spraying with the active ingredient prepared as described above. Plants, used as controls, are treated with the mixture of acetone/tween/DMSO/water not containing the active material. After 24 hours, the plants are contaminated by spraying the leaves with an aqueous suspension of Uromyces appendiculatus spores (150 000 spores per ml). […] Grading (% of efficacy) is carried out 11 days after the contamination, in comparison with the control plants.

Sphaerotheca fuliginea = assay: In vivo preventive test on Sphaerotheca fuliginea (powdery mildew on cucurbits); details: dose 500 ppm; gherkin plants sprayed 24 h before contamination; grading 12 days after contamination
Procedure: Gherkin plants (“Vert petit de Paris” variety), sown in starter cups on a 50/50 peat soil-pozzolana substrate and grown at 24° C., are treated at the Z11 cotyledon stage by spraying with the active ingredient prepared as described above. Plants, used as controls, are treated with the mixture of acetone/tween/DMSO/water not containing the active material. After 24 hours, the plants are contaminated by spraying the cotyledons with an aqueous suspension of Sphaerotheca fuliginea spores (100 000 spores per ml). The spores are collected from infected plants. The contaminated to gherkin plants are incubated at about 20° C. and at 70-80% relative humidity. Grading (% of efficacy) is carried out 12 days after the contamination, in comparison with the control plants.

[1] = Measurement of log P values by HPLC on reversed phase columns (EEC directive 79/831 Annex V.A8); type: physicochemical
Puccinia recondita = assay: In vivo preventive test on Puccinia recondita (brown rust on wheat); details: dose 500 ppm; wheat plants sprayed 24 h before contamination; grading 12 days after contamination
Procedure: Plants, used as controls, are treated with the mixture of acetone/tween/DMSO/water not containing the active material. After 24 hours, the plants are contaminated by spraying the leaves with an aqueous suspension of Puccinia recondita spores (100 000 spores per ml). […] Grading (% of efficacy) is carried out 12 days after the contamination, in comparison with the control plants.

Alternaria brassicae = assay: In vivo preventive test on Alternaria brassicae (leaf spot on radish); details: dose 500 ppm; radish plants sprayed 24 h before contamination; grading 6 days after contamination vs control plants
Procedure: Radish plants (“Pernod Clair” variety), sown in starter cups on a 50/50 peat soil-pozzolana substrate and grown at 17° C., are treated at the cotyledon stage by spraying with the active ingredient prepared as described above. Plants, used as controls, are treated with the mixture of acetone/tween/DMSO/water not containing the active material. After 24 hours, the plants are contaminated by spraying the cotyledons with an aqueous suspension of Alternaria brassicae spores (50 000 spores per ml). The spores are collected from a 15-day-old culture. […] Grading (% of efficacy) is carried out 6 days after the contamination, in comparison with the control plants.

## Cn1nc(C(F)F)c(C(=O)Nc2cccc3c2CCC3C(C)(C)C)c1F (stereo not shown) [Example 97]
Pyrenophora teres
  Eff. %: 83%
Septoria tritici
  Eff. %: 79%
Uromyces appendiculatus
  Eff. %: 100%
Sphaerotheca fuliginea
  Eff. %: 89%
[1]; method marked [a]
  logP: 4.39[a]
Puccinia recondita
  Eff. %: 98%

## CCC1Cc2cccc(NC(=O)c3c(C(F)F)nn(C)c3Cl)c2C1 (stereo not shown) [Example 30]
Pyrenophora teres
  Eff. %: 83%
Septoria tritici
  Eff. %: 70%
Uromyces appendiculatus
  Eff. %: 100%
[1]; method marked [a]
  logP: 4.01[a]
Puccinia recondita
  Eff. %: 100%

## CC(C)C1Cc2cccc(NC(=O)c3c(C(F)F)nn(C)c3Cl)c2C1C (stereo not shown) [Example 48]
Septoria tritici
  Eff. %: 80%
Uromyces appendiculatus
  Eff. %: 100%
Sphaerotheca fuliginea
  Eff. %: 100%
[1]; method marked [a]
  logP: 4.49[a]
Puccinia recondita
  Eff. %: 100%

## CC(C)CC1CCc2c(NC(=O)c3c(C(F)F)nn(C)c3F)cccc21 (stereo not shown) [Example 41]
Alternaria brassicae
  Eff. %: 95%
Uromyces appendiculatus
  Eff. %: 100%
[1]; method marked [a]
  logP: 4.59[a]
Puccinia recondita
  Eff. %: 97%

## CCC1(CC)Cc2c(NC(=O)c3c(C(F)F)nn(C)c3F)cccc2C1C (stereo not shown) [Example 101]
Alternaria brassicae
  Eff. %: 100%
Septoria tritici
  Eff. %: 88%
Uromyces appendiculatus
  Eff. %: 100%
Sphaerotheca fuliginea
  Eff. %: 100%
[1]; method marked [a]
  logP: 4.67[a]
Puccinia recondita
  Eff. %: 98%

## Cn1nc(C(F)F)c(C(=O)Nc2cccc3c2CC(C)(C)C3)c1F [Example 72]
Septoria tritici
  Eff. %: 71%
Uromyces appendiculatus
  Eff. %: 100%
Sphaerotheca fuliginea
  Eff. %: 100%
[1]; method marked [a]
  logP: 3.64[a]
Puccinia recondita
  Eff. %: 98%

## CC(C)C1Cc2cccc(NC(=O)c3c(C(F)F)nn(C)c3Cl)c2C1C (stereo not shown) [Example 47]
Septoria tritici
  Eff. %: 80%
Uromyces appendiculatus
  Eff. %: 86%
[1]; method marked [a]
  logP: 4.68[a]
Puccinia recondita
  Eff. %: 83%

## CC1CC(CC(C)(C)C)c2cccc(NC(=O)c3c(C(F)F)nn(C)c3Cl)c21 (stereo not shown) [Example 69]
Septoria tritici
  Eff. %: 71%
Uromyces appendiculatus
  Eff. %: 100%
Sphaerotheca fuliginea
  Eff. %: 100%
[1]; method marked [a]
  logP: 5.22[a]
Puccinia recondita
  Eff. %: 98%

## CC1c2cccc(NC(=O)c3c(C(F)F)nn(C)c3Cl)c2CC12CCCC2 (stereo not shown) [Example 33, 5-chloro-3-(difluoromethyl)-1-methyl-N-(1′-methyl-1′,3′-dihydrospiro[cyclopentane-1,2′-inden]-4′-yl)-1H-pyrazole-4-carboxamide]
Alternaria brassicae
  Eff. %: 86%
Septoria tritici
  Eff. %: 90%
Uromyces appendiculatus
  Eff. %: 100%
Sphaerotheca fuliginea
  Eff. %: 95%
[1]; pH 2.7
  chromatographic logP: 4.63
Puccinia recondita
  Eff. %: 93%

## CC1CC(C)(C)c2c(F)ccc(NC(=O)c3c(C(F)F)nn(C)c3Cl)c21 (stereo not shown) [Example 37]
Pyrenophora teres
  Eff. %: 75%
Alternaria brassicae
  Eff. %: 97%
Uromyces appendiculatus
  Eff. %: 100%
Sphaerotheca fuliginea
  Eff. %: 100%
[1]; method marked [a]
  logP: 4.11[a]

## CC1CCc2cccc(NC(=O)c3c(C(F)F)nn(C)c3Cl)c21 (stereo not shown) [Example 31]
Septoria tritici
  Eff. %: 80%
Uromyces appendiculatus
  Eff. %: 100%
[1]; method marked [a]
  logP: 3.44[a]
Puccinia recondita
  Eff. %: 100%

## CCCON=C1CCc2c(NC(=O)c3c(C(F)F)nn(C)c3F)cccc21 [Example 28]
Alternaria brassicae
  Eff. %: 71%
[1]; method marked [a]
  logP: 3.52[a]

## CON=C1c2cccc(NC(=O)c3c(C(F)F)nn(C)c3F)c2CC1(C)C (mixture of isomers) [Example 61]
Alternaria brassicae
  Eff. %: 75%
Puccinia recondita
  Eff. %: 86%

## CCC1Cc2c(NC(=O)c3c(C(F)F)nn(C)c3F)cccc2C1(C)C (stereo not shown) [Example 86]
Pyrenophora teres
  Eff. %: 92%
Alternaria brassicae
  Eff. %: 96%
Septoria tritici
  Eff. %: 93%
Uromyces appendiculatus
  Eff. %: 100%
[1]; method marked [a]
  logP: 4.34[a]
Puccinia recondita
  Eff. %: 100%

## CC1CC(C(C)C)c2cccc(NC(=O)c3c(C(F)F)nn(C)c3Cl)c21 (stereo not shown) [Example 35]
Alternaria brassicae
  Eff. %: 79%
Septoria tritici
  Eff. %: 80%
Uromyces appendiculatus
  Eff. %: 100%
[1]; method marked [a]
  logP: 4.46[a]
Puccinia recondita
  Eff. %: 97%

## CC(C)CC1CCc2c(NC(=O)c3c(C(F)F)nn(C)c3Cl)cccc21 (stereo not shown) [Example 66]
Pyrenophora teres
  Eff. %: 80%
Alternaria brassicae
  Eff. %: 97%
Uromyces appendiculatus
  Eff. %: 100%
Puccinia recondita
  Eff. %: 100%

## CCON=C1CC(C)c2c(NC(=O)c3c(C(F)F)nn(C)c3F)cccc21 (stereo not shown) [Example 83]
Pyrenophora teres
  Eff. %: 83%
Alternaria brassicae
  Eff. %: 86%
Uromyces appendiculatus
  Eff. %: 95%
[1]; method marked [a]
  logP: 3.18[a]
Puccinia recondita
  Eff. %: 88%

## CC(C)CC1CCc2c(NC(=O)c3c(C(F)F)nn(C)c3Cl)cccc21 (stereo not shown) [Example 40]
Pyrenophora teres
  Eff. %: 80%
Alternaria brassicae
  Eff. %: 97%
Uromyces appendiculatus
  Eff. %: 100%
[1]; method marked [a]
  logP: 4.87[a]
Puccinia recondita
  Eff. %: 100%

## CCCCON=C1CCc2c(NC(=O)c3c(C(F)F)nn(C)c3F)cccc21 [Example 24]
Septoria tritici
  Eff. %: 80%
[1]; method marked [a]
  logP: 3.96[a]

## Cn1nc(C(F)F)c(C(=O)Nc2cccc3c2CCC32CC2)c1Cl [Example 14]
Alternaria brassicae
  Eff. %: 97%
Uromyces appendiculatus
  Eff. %: 100%
[1]; method marked [a]
  logP: 3.58[a]
Puccinia recondita
  Eff. %: 100%

## CC(C)C1Cc2c(NC(=O)c3c(C(F)F)nn(C)c3Cl)cccc2C1(C)C (stereo not shown) [Example 6]
Alternaria brassicae
  Eff. %: 78%
Uromyces appendiculatus
  Eff. %: 100%
Sphaerotheca fuliginea
  Eff. %: 100%
[1]; method marked [a]
  logP: 4.95[a]
Puccinia recondita
  Eff. %: 100%

## CC1CC(C)(C)c2c(Cl)ccc(NC(=O)c3c(C(F)F)nn(C)c3Cl)c21 (stereo not shown) [Example 12]
Alternaria brassicae
  Eff. %: 94%
Uromyces appendiculatus
  Eff. %: 96%
[1]; method marked [a]
  logP: 4.6[a];
[1]; method marked [b]
  logP: 4.53[b]
Puccinia recondita
  Eff. %: 93%

## CCCON=C1CCc2c(NC(=O)c3c(C(F)F)nn(C)c3Cl)cccc21 [Example 23]
Septoria tritici
  Eff. %: 90%
Uromyces appendiculatus
  Eff. %: 82%
Sphaerotheca fuliginea
  Eff. %: 70%
[1]; method marked [a]
  logP: 3.76[a]

## CCCCON=C1CCc2c(NC(=O)c3c(C(F)F)nn(C)c3Cl)cccc21 [Example 22]
Alternaria brassicae
  Eff. %: 86%
[1]; method marked [a]
  logP: 4.24[a]

## Cn1nc(C(F)F)c(C(=S)Nc2cccc3c2CCC3C(C)(C)C)c1F (stereo not shown) [Example 75]
Septoria tritici
  Eff. %: 79%
Uromyces appendiculatus
  Eff. %: 100%
Sphaerotheca fuliginea
  Eff. %: 100%
[1]; method marked [a]
  logP: 4.51[a]
Puccinia recondita
  Eff. %: 100%

## CCC1(CC)Cc2c(NC(=O)c3c(C(F)F)nn(C)c3Cl)cccc2C1C (stereo not shown) [Example 93]
Septoria tritici
  Eff. %: 75%
Uromyces appendiculatus
  Eff. %: 100%
Sphaerotheca fuliginea
  Eff. %: 98%
[1]; method marked [a]
  logP: 4.92[a]
Puccinia recondita
  Eff. %: 98%

## CCCON=C1CC(C)c2c(NC(=O)c3c(C(F)F)nn(C)c3F)cccc21 (stereo not shown) [Example 91]
Pyrenophora teres
  Eff. %: 83%
Alternaria brassicae
  Eff. %: 86%
Uromyces appendiculatus
  Eff. %: 100%
[1]; method marked [a]
  logP: 3.67[a]
Puccinia recondita
  Eff. %: 94%

## CCC1(C)CCc2c(NC(=O)c3c(C(F)F)nn(C)c3Cl)cccc21 (single isomer, unassigned) [Example 53]
Pyrenophora teres
  Eff. %: 80%
Alternaria brassicae
  Eff. %: 79%
Uromyces appendiculatus
  Eff. %: 100%
Sphaerotheca fuliginea
  Eff. %: 98%
[1]; method marked [a]
  logP: 4.04[a]
Puccinia recondita
  Eff. %: 100%

## CC(C)C1Cc2cccc(NC(=O)c3c(C(F)F)nn(C)c3Cl)c2C1C (stereo not shown) [Example 56]
Septoria tritici
  Eff. %: 80%
Uromyces appendiculatus
  Eff. %: 86%
[1]; method marked [a]
  logP: 4.68[a]
Puccinia recondita
  Eff. %: 83%

## CCON=C1CCc2c(NC(=O)c3c(C(F)F)nn(C)c3Cl)cccc21 [Example 26]
Alternaria brassicae
  Eff. %: 72%
Uromyces appendiculatus
  Eff. %: 100%
[1]; method marked [a]
  logP: 3.27[a]
Puccinia recondita
  Eff. %: 94%

## CC1CC2(CC2)c2cccc(NC(=S)c3c(C(F)F)nn(C)c3Cl)c21 (stereo not shown) [Example 49]
Pyrenophora teres
  Eff. %: 83%
Septoria tritici
  Eff. %: 71%
Uromyces appendiculatus
  Eff. %: 100%
[1]; method marked [a]
  logP: 3.85[a]
Puccinia recondita
  Eff. %: 94%

## CC1CC(CC(C)(C)C)c2cccc(NC(=S)c3c(C(F)F)nn(C)c3F)c21 (stereo not shown) [Example 87]
Alternaria brassicae
  Eff. %: 75%
Uromyces appendiculatus
  Eff. %: 100%
Sphaerotheca fuliginea
  Eff. %: 98%
[1]; method marked [a]
  logP: 5.08[a]
Puccinia recondita
  Eff. %: 98%
